Experimental data published in US5501850A, “Use of benzimidazole derivatives as light protection filters” (Merck Patent Gesellschaft mit beschrankter Haftung, priority 1992, dated 1996).
≈ marks a conversion by molar mass, not a printed value. Where two headings read alike, the source gives them in different places.

Tests used:
[1] = 280-320 nm; cited from earlier work
[2] = cited from earlier work
[3] = UV spectra measured in a UV spectrometer (Perkin-Elmer), path length one centimeter; format: physicochemical; settings: ethanol, c=1 mg/100 ml
Experimental: The UV spectra were measured in a UV spectrometer from Perkin-Elmer at a path length of one centimeter.

Solubility = format: physicochemical; settings: organic solvent or mixture

| E at λmax1 [3] | E at λmax2 [3] | λmax1 [3] [nm] | λmax2 [3] [nm] | SMILES | further results |
| --- | --- | --- | --- | --- | --- |
|  |  |  |  | O=S(=O)(O)c1ccc2[nH]c(-c3ccccc3)nc2c1 [EUSOLEX® 232] | filter quality in the UVB range [1]: good filters |
|  |  |  |  | Cc1ccc(C=C2C(=O)C3(C)CCC2C3(C)C)cc1 (stereo not shown) [EUSOLEX® 6300] | filter quality in the UVB range [1]: good filters |
|  |  |  |  | CC(C)c1ccc(C(=O)CC(=O)c2ccccc2)cc1 [EUSOLEX® 8020] | stability when exposed to UV irradiation [2]: do not have an unlimited stability |
| 0.34 | 0.30 | 303 | 328 | CCCCC(CC)COc1ccc(OCC(CC)CCCC)c(-c2nc3ccccc3[nH]2)c1 (stereo not shown) [Example 1, 2-2',5'-Di(2-ethylhexyloxy)phenyl!benzimidazole] |  |
| 0.51 | 0.45 | 297 | 308 | CCCCC(CC)COc1c(OC)ccc(-c2nc3ccccc3[nH]2)c1OC (stereo not shown) [Example 2] | solubility (Solubility; isopropanol, read-out: Solubility in Isopropanol): 640 mg/mL (≈ 1670 mM); solubility (Solubility; miglyol, read-out: Solubility in Miglyol): 590 mg/mL (≈ 1540 mM); solubility (Solubility; paraffin, read-out: Solubility in Paraffin): 57 mg/mL (≈ 149 mM) |
| 0.76 | 0.42 | 309 | 323 | COc1ccc(-c2nc3ccccc3[nH]2)c(OC)c1OC [Example 2a, 2-(2',3',4'-Trimethoxy)phenylbenzimidazole] |  |
|  |  |  |  | COc1ccc(C(=O)CC(=O)c2ccc(C(C)(C)C)cc2)cc1 [PARSOL® 1789] | stability when exposed to UV irradiation [2]: do not have an unlimited stability |
